{"source": "patent US7128895B2", "about": "“Use of bile acid derivatives conjugated with metal ion chelated complexes for the diagnostic assessment of microvascular permeability” (Bracco Imaging S.p.A., priority 2000, dated 2006)", "assay": "Urinary and faecal excretion screening of an intravenously administered contrast agent", "assay_type": "in vivo", "conditions": "rats", "description": "Experimental Model for the Urinary and Faecal Excretion Screening of an Intravenously Administered Contrast Agent\nThe experimentation is performed on 6 rats.\nThe rats are individually housed in metabolic cages and urine and faeces are collected daily, for 7 days after administration. In particular faeces and urine are collected at the following time periods: 0 to 24 h,and every 24 hours up to 7 days.\nThe animals are killed by decapitation at 7 days post-dosing and animals blood is collected in heparinised test tubes and then centrifuged for 15 min at 3500·g to separate the plasma. After bleeding, liver, spleen, femurs and kidneys are collected and weighted to evaluate residual content of Gd in the organs. Residual gadolinium concentration in the organic samples is determined by inductively-coupled plasma atomic emission spectrometry (ICP-AES) with a Jobin-Yvon Mod 24 spectrometer\nExcretion Screening of Rats Injected with B22956/1.\nThe screening is performed using the contrast compound as 0.25M solution. The agent in intravenously injected in 6 rats with single doses of 0.1 and 1.0 mmol·kg^−1 of animal body weight.", "key": {"[1]": {"conditions": "0.1 mmol·kg^-1 intravenous, 7 days"}, "[2]": {"conditions": "1.0 mmol·kg^-1 intravenous, 0 to 7 days"}, "[3]": {"conditions": "1.0 mmol·kg^-1 intravenous, within 24 h after injection"}}, "note": "“Also recorded” adds a separate entry of the source.", "data": [{"substance": "gadolinium complex of the [3(S),5,12]-3-[[4-[bis[2-[bis(carboxymethyl)-amino]ethyl]amino]-4-carboxy-1-oxobutyl]amino]-12-hydroxycholan-24-oic acid [B22956/1]", "values": [{"measurement": "cumulative urinary and faecal elimination within 7 days", "setting": "0.1 mmol·kg^-1 intravenous", "value": "94 to 102 % of the ID"}, {"measurement": "average cumulative amount of gadolinium recovered in faeces", "setting": "[1]", "value": "88.2±7.9 % of the injected dose (ID)"}, {"measurement": "average cumulative amount of gadolinium recovered in urine", "setting": "[1]", "value": "9.0±3.7 % of the ID"}, {"measurement": "injected dose recovered in the faeces within 24 h", "setting": "0.1 mmol·kg^-1 intravenous, within 24 h after injection", "value": "~87 % of the injected dose"}, {"measurement": "cumulative urinary and faecal elimination within 7 days", "setting": "1.0 mmol·kg^-1 intravenous", "value": "89 to 92 % of the ID"}, {"measurement": "gadolinium recovered in faeces, cumulative amount", "setting": "[2]", "value": "39.7±1.4 % of the ID"}, {"measurement": "gadolinium recovered in urine, cumulative amount", "setting": "[2]", "value": "52.7 % of the ID"}, {"measurement": "injected dose recovered in the faeces within 24 h", "setting": "[3]", "value": "about 37 % of ID"}, {"measurement": "injected dose recovered in the urine within 24 h", "setting": "[3]", "value": "~48 % of the injected dose"}, {"measurement": "residual Gd in plasma, liver, spleen, femurs and kidneys", "setting": "7 days after 0.1 or 1.0 mmol·kg^-1", "value": "almost total absence of gadolinium residues; also recorded: very low or negligible"}, {"measurement": "residual Gd in the plasma as fraction of injected dose", "setting": "7 days after administration, plasma volume taken as 40 mL/Kg", "value": "less than 0.04 % of the injected dose"}, {"measurement": "residual content of Gd in plasma", "setting": "7 days, both administered doses, ICP-AES detection limit", "value": "< 0.05", "unit": "μg gadolinium/mL"}]}]}
